Here are results for 13 compounds from patent publication US12655120B2, “GPR52 modulator compounds” (NXERA PHARMA UK LIMITED, priority 2020, dated 2026).

For the assay, the target named is T1, human GPR52 (Homo sapiens, UniProt Q9Y2T5).
T1 construct: expressed in transfected cells; host or cells: HEKf suspension cells infected with BacMam virus
Nature of the assay: GPR52 Agonist Functional cAMP Assay. Format: cell-based. As to conditions: for EC50: HEKf cells infected with human GPR52 BacMam, HTRF cAMP, 30 min at 37° C., read-out: pEC50 average (converted); for Emax: normalised to DMSO (0%) and maximal compound 7m (J. Med. Chem., 2014, 57, 5226) response (100%). As to the method: HEKf suspension cells were infected for 24 h with 0.1% v/v human GPR52 expressing BacMam virus, a modified baculovirus designed for mammalian gene expression. Following BacMam infection, cells were pelleted by centrifugation (335 g, 5 min), resuspended in cell freezing medium (Sigma) and frozen at −150° C. until required. On experiment day, 25 nL GPR52 compound dilutions, prepared in DMSO, were stamped onto proxiplates (PerkinElmer) by a LabCyte ECHO acoustic dispenser. Frozen cells were thawed and resuspended in assay stimulation buffer (Cisbio) containing 0.5 mM 3-iso-butyl-1-methylxanthine (IBMX, Sigma) to achieve a density of 2000 cells per well. 10 μl cells were added to assay plates using a Multidrop Combi Reagent Dispenser (ThermoFisher) before centrifugation (335 g, 1 min). Cells were incubated with compounds at 37° C. for 30 min prior to addition of cAMP detection reagents (HiRange cAMP kit, Cisbio) which were prepared according to the manufacturer's instructions. Plates were shaken for 1 h at room temperature before reading on a PHERAstar FS plate reader (BMG Labtech) using standard HTRF settings. HTRF ratios were obtained by dividing the acceptor emissions (665 nm) by the donor emissions (620 nm) and multiplying by 10,000.
(In TR-FRET formats the signal depends on donor and acceptor labels being close together.)

Structures are written as SMILES.

T1 sequence (Q9Y2T5 whole entry): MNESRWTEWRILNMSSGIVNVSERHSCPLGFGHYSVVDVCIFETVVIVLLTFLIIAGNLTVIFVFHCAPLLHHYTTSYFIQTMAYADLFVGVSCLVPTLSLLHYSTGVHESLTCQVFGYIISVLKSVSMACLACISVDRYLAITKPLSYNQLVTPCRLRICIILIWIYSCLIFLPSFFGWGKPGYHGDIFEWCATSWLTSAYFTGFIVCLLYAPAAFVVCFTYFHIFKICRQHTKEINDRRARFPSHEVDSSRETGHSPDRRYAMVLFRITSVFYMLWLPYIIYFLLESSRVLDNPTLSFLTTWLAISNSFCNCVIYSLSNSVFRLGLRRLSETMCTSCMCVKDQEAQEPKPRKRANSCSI

In the case of `NC(=O)c1cnn(-c2cc(Cc3cc(F)cc(C(F)(F)F)c3)ccn2)c1` [Example 1, 1-(4-(3-fluoro-5-(trifluoromethyl)benzyl)pyridin-2-yl)-1H-pyrazole-4-carboxamide], the EC50 was 0.126 µM and the Emax was determined as 90%.
On the same counts, the results for `NC(=O)c1cnn(-c2ccnc(Cc3cc(F)cc(C(F)(F)F)c3)c2)c1` [Example 2, 1-(2-(3-fluoro-5-(trifluoromethyl)benzyl)pyridin-4-yl)-1H-pyrazole-4-carboxamide] are 0.501 µM and 90%.
For `CNC(=O)c1cnn(-c2cc(Cc3cc(F)cc(C(F)(F)F)c3)ccn2)c1` [Example 3, 1-(4-(3-fluoro-5-(trifluoromethyl)benzyl)pyridin-2-yl)-N-methyl-1H-pyrazole-4-carboxamide], in that order: 0.316 µM and 86%.
For `NC(=O)c1cnn(-c2cc(Cc3cc(F)cc(C(F)(F)F)c3)ccn2)n1` [Example 4, 2-(4-(3-fluoro-5-(trifluoromethyl)benzyl)pyridin-2-yl)-2H-1,2,3-triazole-4-carboxamide], in that order: 0.316 µM and 84%.
For `Cc1nn(-c2cc(Cc3cc(F)cc(C(F)(F)F)c3)ccn2)cc1C(N)=O` [Example 5, 1-(4-(3-fluoro-5-(trifluoromethyl)benzyl)pyridin-2-yl)-3-methyl-1H-pyrazole-4-carboxamide], the EC50 was 0.0158 µM and the Emax worked out at 94%.
As for `Cc1nn(-c2cc(Cc3cc(F)cc(C(F)(F)F)c3)ccn2)c(C)c1C(N)=O` [Example 6, 1-(4-(3-fluoro-5-(trifluoromethyl)benzyl)pyridin-2-yl)-3,5-dimethyl-1H-pyrazole-4-carboxamide], the EC50 was 0.0126 µM and the Emax came out at 97%.
Turning to `Cc1c(C(N)=O)cnn1-c1cc(Cc2cc(F)cc(C(F)(F)F)c2)ccn1` [Example 7, 1-(4-(3-fluoro-5-(trifluoromethyl)benzyl)pyridin-2-yl)-5-methyl-1H-pyrazole-4-carboxamide], the EC50 was 0.126 µM and the Emax worked out at 93%.
For `Cc1nn(-c2ccnc(Cc3cc(F)cc(C(F)(F)F)c3)c2)cc1C(N)=O` [Example 8, 1-(2-(3-fluoro-5-(trifluoromethyl)benzyl)pyridin-4-yl)-3-methyl-1H-pyrazole-4-carboxamide], in that order: 0.02 µM and 96%.
Consider `NC(=O)c1ccn(-c2cc(Cc3cc(F)cc(C(F)(F)F)c3)ccn2)n1` [Example 9, 1-(4-(3-fluoro-5-(trifluoromethyl)benzyl)pyridin-2-yl)-1H-pyrazole-3-carboxamide], for which the EC50 is 0.1 µM and the Emax was determined as 85%.
For `Cc1cn(-c2cc(Cc3cc(F)cc(C(F)(F)F)c3)ccn2)nc1C(N)=O` [Example 10, 1-(4-(3-fluoro-5-(trifluoromethyl)benzyl)pyridin-2-yl)-4-methyl-1H-pyrazole-3-carboxamide], in that order: 0.0794 µM and 83%.
Regarding `COc1nn(-c2ccnc(Cc3cc(F)cc(C(F)(F)F)c3)c2)cc1C(N)=O` [Example 11, 1-(2-(3-fluoro-5-(trifluoromethyl)benzyl)pyridin-4-yl)-3-methoxy-1H-pyrazole-4-carboxamide], the EC50 is 0.251 µM and the Emax was 86%.
For `Cc1nn(-c2ccnc(Cc3cc(F)cc(C(F)(F)F)c3)c2)nc1C(N)=O` [Example 12, 2-(2-(3-fluoro-5-(trifluoromethyl)benzyl)pyridin-4-yl)-5-methyl-2H-1,2,3-triazole-4-carboxamide], in that order: 0.0501 µM and 95%.
On to `Cc1nn(-c2cc(Cc3cc(F)cc(C(F)(F)F)c3)ccn2)nc1C(N)=O` [Example 13, 2-(4-(3-fluoro-5-(trifluoromethyl)benzyl)pyridin-2-yl)-5-methyl-2H-1,2,3-triazole-4-carboxamide], for which the EC50 was 0.0398 µM and the Emax amounted to 93%.

Usually Emax stands for the greatest response seen or fitted, relative to the assay's reference.
